Assay results: ChEMBL document CHEMBL1201862, “PubChem BioAssay data set” (2004)
Each block holds one compound with its values, some of them ahead of it. Active and inactive are the calls of the source.

How the values were obtained:
[1] = cytotoxicity toward NIH3T3 fibroblasts, dose response, counter-screen, cell-based, ATP luminescence, mouse fibroblasts (AID 2010); format: functional;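 note: cells exposed to compound for about 90 hours before reading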
[2] = inhibitors of intracellular T. cruzi replication, confirmation, NIH3T3 host cells, beta-gal luminescence (AID 2044); format: functional, cell-based;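 note: intracellular parasites grown in NIH/3T3 mouse fibroblasts as host cells; luminescent beta-galactosidase reporter signal from transgenic T. cruzi replicating inside host cells; inhibitors lower the luminescence signal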
[3] = C. albicans growth with fluconazole, confirmation, fluorescence, retest (AID 2467); format: functional, cell-based
[4] = NIH-3T3 fibroblast cytotoxicity, dose response, cytotoxicity control, cell-based, fluorescence, Alamar Blue, secondary assay (AID 2327); format: functional;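 note: NIH-3T3 mouse fibroblasts cultured with fluconazole at 8 µg/mL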
[5] = target: T1, Heat shock factor protein 1 (Mus musculus, UniProt P38532); assay: inhibition of MG132-induced HSE-luciferase signal, confirmation, cell-based, NIH3T3, luminescence, dose retest (AID 2382); format: functional;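 note: NIH3T3 fibroblasts with HSF1-driven luciferase reporter stressed by proteasome inhibitor MG132; luminescence from HSF1-driven luciferase expression after 8 hours of MG132 stress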
T1 sequence (P38532 whole entry): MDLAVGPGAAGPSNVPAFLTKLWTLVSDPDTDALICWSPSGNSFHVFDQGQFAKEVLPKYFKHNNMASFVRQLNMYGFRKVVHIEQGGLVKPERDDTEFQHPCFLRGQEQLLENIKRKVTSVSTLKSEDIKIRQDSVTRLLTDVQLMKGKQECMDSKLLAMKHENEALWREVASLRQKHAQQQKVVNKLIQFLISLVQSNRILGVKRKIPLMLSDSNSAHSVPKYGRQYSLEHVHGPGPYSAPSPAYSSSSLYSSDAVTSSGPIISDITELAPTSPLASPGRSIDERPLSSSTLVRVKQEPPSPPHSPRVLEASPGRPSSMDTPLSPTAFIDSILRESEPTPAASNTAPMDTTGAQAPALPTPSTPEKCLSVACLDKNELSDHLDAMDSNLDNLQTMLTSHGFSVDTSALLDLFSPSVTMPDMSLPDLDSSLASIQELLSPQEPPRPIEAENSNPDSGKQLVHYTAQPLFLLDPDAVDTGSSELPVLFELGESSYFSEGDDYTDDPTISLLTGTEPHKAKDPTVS

[6] = HEp-2 cell cytotoxicity, dose response, cytotoxicity control for RSV inhibitor project, HTS (AID 2410); format: functional; conditions: human respiratory syncytial virus
Cytochrome P450 2C19 = Cytochrome P450 2C19 (Homo sapiens, UniProt P33261); assay: Cytochrome panel assay with activity outcomes. Panel member name: p450-cyp2c19 Compounds with AC50 equal or less than 10 uM are considered active; format: functional
Chain of Cytochrome P450 2C19 (P33261 whole entry): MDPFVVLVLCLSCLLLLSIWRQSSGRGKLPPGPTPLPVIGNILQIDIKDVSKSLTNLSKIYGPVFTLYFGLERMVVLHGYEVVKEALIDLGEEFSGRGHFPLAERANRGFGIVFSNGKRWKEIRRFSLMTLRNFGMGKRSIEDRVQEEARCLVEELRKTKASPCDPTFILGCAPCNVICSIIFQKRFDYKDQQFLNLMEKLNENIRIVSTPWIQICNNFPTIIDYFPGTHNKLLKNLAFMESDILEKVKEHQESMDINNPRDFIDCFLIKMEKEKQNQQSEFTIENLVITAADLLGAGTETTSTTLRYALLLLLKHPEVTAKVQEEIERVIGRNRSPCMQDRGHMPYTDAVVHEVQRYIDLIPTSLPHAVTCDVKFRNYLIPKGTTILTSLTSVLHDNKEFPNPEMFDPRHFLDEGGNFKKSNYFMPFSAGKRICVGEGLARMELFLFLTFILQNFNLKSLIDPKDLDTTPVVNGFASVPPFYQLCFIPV

Streptococcus = assay: Group A Streptococcus viability loss, dose response, counter-screen for streptokinase expression inhibitor project, luminescence, BacTiterGlo (AID 1915); format: functional, organism-based;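 note: potency for reduction of bacterial viability or growth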
[7] = test system: Streptococcus sp. 'group A'; assay: growth inhibition of control SK(-) GAS strain, dose response, counter-screen for streptokinase expression inhibitor project, luminescence, kanamycin, BacTiterGlo, confirmation (AID 1900); format: functional, organism-based

SMILES: Cc1c(O)cccc1C(=O)N[C@@H](CSc1ccccc1)[C@H](O)CN1C[C@H]2CCCC[C@H]2C[C@H]1C(=O)NC(C)(C)C
- EC50 [1]: > 60 µM (not active)
- EC50 [2]: 3.42 µM (active)

SMILES: O=C(Cc1cccs1)Nc1cccc(-c2nc3ccccc3[nH]2)c1
- EC50 [3]: 3.52 µM (active)
- EC50 [4]: > 150 µM (inconclusive)

- EC50 [5]: > 195 µM (not active)
SMILES: Cn1c(=O)c2cn(-c3ccc4c(c3)OCCO4)cc2n(C)c1=O

SMILES: CCC(=O)Nc1ccccc1C(=O)OCC(=O)c1ccc2ccccc2c1
- CC50 [6]: 25 µM (active)

- AC50 (Cytochrome P450 2C19): inconclusive
SMILES: Nc1ccn([C@H]2O[C@@H](COP(=O)(O)O)[C@@H](O)[C@H]2O)c(=O)n1

SMILES: CCn1c2ccc(F)cc2c2nnc(SCCN3CCCCC3)nc21
- EC50 [1]: > 60 µM (not active)
- EC50 [2]: 0.777 µM (active)

- EC50 [5]: > 195 µM (not active)
SMILES: CC(C)(C)NS(=O)(=O)c1cc2c3c(c1)CCN3C(=O)CC2

SMILES: COc1ccccc1Cn1c(=O)c2ccccc2n2c(Sc3ncnc4sccc34)nnc12
- CC50 [6]: 19.6 µM (active)

SMILES: CSc1cc(-c2ccccc2)n(C)c(=O)c1C#N
- EC50 [3]: > 38 µM (not active)
- EC50 [4]: 117 µM (active)

- AC50 (Cytochrome P450 2C19; read-out: AC50): 17.8 µM (inconclusive)
SMILES: CCNc1nc(NCC)nc(ON=C(C)C)n1

SMILES: CC(C)(C)c1csc(NC(=O)Cn2cnc3ccccc3c2=O)n1
- EC50 [3]: > 38 µM (not active)
- EC50 [4]: > 150 µM (inconclusive)

SMILES: CCOc1ccc(CN2CCC(C(=O)N3CCN(c4ccccc4F)CC3)CC2)cc1OC
- EC50 [1]: > 30 µM (not active)
- EC50 [2]: 0.182 µM (active)

SMILES: CC(C)C[C@H](NC(=O)c1[nH]cnc1C(=O)N[C@@H](Cc1ccccc1)C(=O)OC(C)(C)C)C(=O)OC(C)(C)C
- EC50 (Streptococcus): 5.07 µM (active)
- EC50 [7]: 2.33 µM (active)

SMILES: CC(=O)NC12CC3CC(C1)CC(C(=O)Oc1ccc(N(C)S(=O)(=O)c4cc(C)ccc4C)cc1)(C3)C2
- CC50 [6]: 34.2 µM (active)

SMILES: Cn1c(=O)c(=O)n(C)c2cc(S(=O)(=O)NCCN3CCN(c4ccccc4F)CC3)ccc21
- EC50 [1]: > 60 µM (not active)
- EC50 [2]: 0.496 µM (active)

- EC50 [5]: > 195 µM (not active)
SMILES: Nc1cccc(/C=C/C(=O)O)c1

- AC50 (Cytochrome P450 2C19; read-out: AC50): 22.4 µM (inconclusive)
SMILES: CCCCNC(=O)NS(=O)(=O)c1cnccc1Sc1ccc(Cl)cc1

- EC50 [5]: > 195 µM (not active)
SMILES: COc1ccc(C(=O)C2CCCN(S(=O)(=O)c3ccccc3F)C2)c(C)c1 (stereo not given)

SMILES: CCN1C(=O)/C(=C2/C(=O)Nc3ccccc32)c2cc(Br)ccc21
- EC50 [1]: > 60 µM (inconclusive)
- EC50 [2]: 1.3 µM (active)

- EC50 [5]: > 195 µM (not active)
SMILES: Cc1cccc(OCC(=O)OC2CCN(C)CC2)c1

SMILES: Cc1nc2c(=O)oc3ccccc3c2n1-c1ccccc1
- EC50 [3]: 2.15 µM (active)
- EC50 [4]: > 150 µM (inactive)

- EC50 [5]: > 195 µM (not active)
SMILES: COC(=O)c1cccc(NC(=O)CN2CCN(Cc3ccccc3)CC2)c1

SMILES: CCNc1nc(NC(C)C)nc(N2CC(=O)N(CC(=O)OCC)C2=N)n1
- CC50 [6]: 25.2 µM (active)

SMILES: COc1ccc(CCNC(=O)[C@H](C)N2C(=O)N3CCc4c([nH]c5ccccc45)[C@@]3(C)C2=O)cc1
- EC50 [1]: > 60 µM (not active)
- EC50 [2]: 1.97 µM (active)

SMILES: O=C(CCc1ccc(Oc2cc([N+](=O)[O-])cc([N+](=O)[O-])c2)cc1)NC1CCCC1
- EC50 [1]: > 30 µM (not active)
- EC50 [2]: 0.106 µM (active)

SMILES: O=C(CSCc1ccc(Cl)cc1)Nc1cc([N+](=O)[O-])ccc1O
- EC50 [3]: 0.491 µM (active)
- EC50 [4]: > 150 µM (inactive)

SMILES: N#Cc1ccc(OCCOCCNC2CCCC2)cc1
- EC50 [1]: > 60 µM (not active)
- EC50 [2]: 0.2 µM (active)

SMILES: CC1(C)Cc2c(C#N)c(SCCOc3ccccc3)nc(N3CCOCC3)c2CO1
- EC50 [1]: > 60 µM (not active)
- EC50 [2]: 1.49 µM (active)

SMILES: C=CCN(C(=O)CSC1=NC(=O)CN1C(C)=O)c1nc(C)c(-c2ccccc2)s1
- EC50 [1]: > 30 µM (not active)
- EC50 [2]: 1.58 µM (active)

SMILES: CNC(S)=Nc1sc2c(c1C(=O)OC)CCC2
- CC50 [6]: 36.2 µM (active)

SMILES: CC(=O)COc1ccc2c3c(c(=O)oc2c1)CCCC3
- CC50 [6]: > 50 µM (active)

- EC50 [5]: 23 µM (active)
SMILES: O=C(COC(=O)c1cc[n+]([O-])cc1)Nc1cccc(Cl)c1Cl

SMILES: Fc1cccc(Cl)c1Cn1nnc(-c2ccc3c(c2)OCO3)n1
- CC50 [6]: 26.2 µM (active)

SMILES: O=C(NCC1CCCO1)c1cc2c3ccccc3nc-2c(-c2cccc(Br)c2)[nH]1 (stereo not given)
- EC50 [1]: > 60 µM (not active)
- EC50 [2]: 0.882 µM (active)

- EC50 [5]: > 195 µM (not active)
SMILES: Cc1ccc(-c2csc(NC(=O)c3ccc(S(=O)(=O)N4CCc5ccccc54)cc3)n2)cc1

SMILES: CN1CCN(Cc2ccc(Sc3ccc(Cl)cc3)c([N+](=O)[O-])c2)CC1
- EC50 [1]: > 60 µM (not active)
- EC50 [2]: 1.13 µM (active)

SMILES: CCOc1ccc(NCC(=O)c2ccc(C)cc2)cc1
- EC50 [1]: > 30 µM (not active)
- EC50 [2]: 1.38 µM (active)
- EC50 [5]: > 195 µM (not active)

- EC50 [5]: > 195 µM (not active)
SMILES: Cc1ccccc1-c1nc2sc3c(c2c(=O)n1N)CCCC3

SMILES: CCOc1ccc(CN(C)CC(=O)Nc2cccc(S(=O)(=O)N(C)c3ccccc3)c2)cc1
- EC50 [1]: > 60 µM (not active)
- EC50 [2]: 0.181 µM (active)

- EC50 [5]: > 195 µM (not active)
SMILES: O=C(COC(=O)c1cc(Cl)ccc1O)NNC(=O)c1ccc([N+](=O)[O-])cc1

- EC50 [5]: > 195 µM (not active)
SMILES: Cc1ccc(S(=O)(=O)N(C)c2c(C)ccc(S(=O)(=O)N3CCN(C)CC3)c2C)cc1

SMILES: CN1CCN(Cc2cccc(Oc3ccc(Cl)cc3)c2)CC1
- EC50 [1]: > 60 µM (inconclusive)
- EC50 [2]: 0.267 µM (active)

SMILES: Cc1ccccc1N1CCN(CCN2C(=O)CC(=C3c4ccccc4-c4ccccc43)C2=O)CC1
- EC50 [3]: 3.89 µM (active)
- EC50 [4]: > 160 µM (inactive)

SMILES: O=C(Oc1ccc2ccc(=O)oc2c1)c1ccco1
- EC50 [1]: > 60 µM (not active)
- EC50 [2]: > 60 µM (not active)

SMILES: COC(=O)C1=C(C)N(c2ccc(Cl)cc2)/C(=C/c2ccc(O)cc2)C1=O
- CC50 [6]: 36.3 µM (active)

SMILES: CCCCCCCCn1c(N2CCN(c3cccc(Cl)c3)CC2)nc2c1c(=O)[nH]c(=O)n2C
- EC50 [1]: > 60 µM (not active)
- EC50 [2]: 2.22 µM (active)

- EC50 [5]: 2.01 µM (active)
SMILES: N#Cc1cc2c(nc1SCC(=O)N1CCOCC1)CCCCC2

SMILES: CCc1c(C)sc(NC(=O)CN2CCN(C(=O)c3ccco3)CC2)c1C(=O)OC
- CC50 [6]: 12.7 µM (active)

SMILES: O=c1[nH]c(NCCO)nc2c1C1(CCCCC1)Cc1ccccc1-2
- CC50 [6]: > 50 µM (active)

SMILES: CCc1nnc(NC(=O)CSc2nnc(CNc3cccc(C)c3)n2-c2ccccc2)s1
- EC50 [3]: > 38 µM (not active)
- EC50 [4]: > 150 µM (inactive)

SMILES: COc1ccc(CCn2c(C)cc3c(c2=O)C(c2ccc4c(c2)OCO4)C(C#N)=C(N)O3)cc1OC (stereo not given)
- EC50 [3]: > 38 µM (not active)
- EC50 [4]: > 160 µM (inactive)

SMILES: CCCCn1c(-c2ccco2)nc2oc3ccccc3c(=O)c2c1=O
- EC50 (Streptococcus): 46.1 µM (active)
- EC50 [7]: 64 µM (active)

- EC50 [5]: > 195 µM (not active)
SMILES: Cc1cc(C)n(C(=O)c2ccncc2)n1

SMILES: Cc1ccc(NC(=O)CC2SC(N/N=C3\CCCc4ccccc43)=NC2=O)cc1 (stereo not given)
- CC50 [6]: 15.5 µM (active)

SMILES: COC(=O)/C(=N/Nc1ccc(C)cc1)N1CCCc2ccccc21
- CC50 [6]: 22.3 µM (active)

SMILES: O=C(N/N=C/c1cccc(Oc2ccccc2)c1)c1cccc(Br)c1
- CC50 [6]: 17 µM (active)

- EC50 [5]: > 195 µM (not active)
SMILES: c1ccc(-c2nn[nH]n2)nc1
